Laboratory results: US10690666B2, “Methods and compositions for modulating TH-GM cell function” (National University of Singapore, priority 2014, dated 2020)

Assays:
naïve CD4+ T cells [1] = assay: In vitro TH-GM (GM-CSF-expressing TH) differentiation from naïve CD4+ T cells; type: cell-based, mouse; details: TH-GM cell-favoring condition, inhibitor 3 days
Procedure: Naïve CD4^+ T cells were primed with plate-bound anti-CD3 and soluble anti-CD28 in the presence of a combination of various cytokines and neutralizing antibodies as indicated. GM-CSF, IL-17 and IFN-γ expression was analyzed by intracellular staining (FIG. 13A) or RT-PCR (FIG. 13B)
GM-CSF and IFN-γ expression in naive CD4^+ T cells activated for 72 h with anti-CD3 alone or plus anti-CD28 (FIG. 14A). In FIG. 14B, sorted naïve CD4^+ T cells were stimulated with anti-CD3 and anti-CD28 in the presence of neutralizing antibodies against IL-12 and IFN-γ without or with the addition of IL-6. The frequencies of GM-CSF^+ and IL-17^+ cells were measured by intracellular staining (FIG. 14B). In FIG. 14C, naïve CD4^+ T cells from Stat3^+/+ and Stat3^−/− mice were polarized under conditions as indicated for 72 h. The frequencies of GM-CSF^+ and IL-17^+ cells were analyzed. In FIG. 14D, naïve CD4^+ T cells were activated with anti-CD3 and anti-CD28 in the presence of IL-2 or anti-IL-2. The frequencies of GM-CSF^+, IL-17^+ and IFN-γ^+ cells were analyzed.
Naïve CD4^+ T cells were primed with plate-bound anti-CD3 and soluble anti-CD28 in the presence of various concentration of IL-7 as indicated. GM-CSF and IFN-γ expression was analyzed by intracellular staining (FIG. 15A) or ELISA (FIG. 15B). In FIGS. 15C and 15D, Stat5^+/+ and Stat5^−/− naïve CD4^+ T cells were activated with anti-CD3 and anti-CD28 in the presence IL-7 for 3 days. GM-CSF, IL-17 and IFN-γ expression was analyzed by intracellular cytokine staining (FIG. 15C). GM-CSF secretion was measured by ELISA (FIG. 15D).

EAE mice = assay: EAE (MOG35-55/CFA) model; type: in vivo
Procedure: (FIG. 23A) Clinical EAE scores of wild-type control mice (n=5) or administrated with STAT5 inhibitor (Calbiochem). Arrow indicates the treatment points. (FIG. 23B) Histology of spinal cords at day 18 of EAE mice receiving different treatments. (FIG. 23C) Intracellular staining and flow cytometry of CNS-infiltrating CD4^+ T cells at peak of disease. (FIG. 23D) Whole CNS was harvest for RNA extraction. GM-CSF mRNA expression was analyzed by RT-PCR. Data represent two independent experiments. *p<0.05.
EAE induction procedures were modified from previous report^3. For active EAE induction, mice were immunized in two sites on the hind flanks with 300 μg MOG35-55 in 100 μl CFA containing 5 mg/ml heat-killed M. tuberculosis strain H37Ra (Difco) at day 0 and day 7. Pertussis toxin (List Bio Lab) was administrated intraperitoneally at the dosage of 500 ng per mouse at day 1 and day 8. For single MOG35-55/CFA immunization, the similar procedure was performed at day 0 and day 1 only. In an alternative active EAE induction, LPS (600 μg/ml in IFA, O111:B4 from Sigma) was used as adjuvant. […] Clinical symptoms were scored as follows: 0, no clinical sign; 1, loss of tail tone; 2, wobbly gait; 3, hind limb paralysis; 4, hind and fore limb paralysis; 5, death. […] For analysis of CNS-infiltrating cells, both spinal cord and brain were collected and minced from perfused mice, and mononuclear cells were isolated by gradient centrifuge with Percoll (GE Healthcare).
To explore the therapeutic effect of targeting STAT5 activation in EAE disease, the commercial STAT5 inhibitor was administered to wild-type mice intraperitoneally every other day after disease onset. Development of paralysis was assessed by daily assignment of clinical scores.

STAT3 = target: T1, STAT3 (Mus musculus, UniProt P42227); assay: IL-6-induced STAT3 activation (Tyr705 phosphorylation) in CD4+ T cells, immunoblotting; type: cell-based; details: 50 or 100 μM; IL-6 30 min
T1 construct: endogenous in cells; host or cells: primary mouse CD4+ T cells (spleen and lymph nodes)
Procedure: (§1) FIGS. […] depict inhibition of STAT5 activation suppresses TH-GM cell differentiation in vitro. CD4^+ T cells were pre-incubated with STAT5 inhibitor (Calbiochem) (FIG. 22A) or JAK3 inhibitor (FIG. 22B) at indicated concentrations or vehicle (−) for 1 h before stimulation with IL-7 for 30 min. Activation (Tyr694 phosphorylation) of STAT5 was determined by immunoblotting. CD4^+ T cells were pre-incubated with STAT5 inhibitor at indicated concentrations or vehicle (−) for 1 h before stimulation with IL-6 for 30 min. Activation (Tyr705 phosphorylation) of STAT3 was determined by immunoblotting (FIG. 22C). In FIG. 22D, CD4^+ T cells were pre-incubated with STAT5 inhibitor at indicated concentrations or vehicle (−) for 1 h before stimulation with IFN-γ for 30 min. Activation (Tyr701 phosphorylation) of STAT1 was determined by immunoblotting. In FIG. 22E, naïve CD4^+ T cells were isolated and activated under neutral condition or TH-GM cell-favoring condition with the addition of different concentrations of STAT5 inhibitor for 3 days. GM-CSF and IFN-γ expression was analyzed by intracellular cytokine staining and flow cytometry.
(§2) The effect of disrupting STAT5 activation by chemical inhibitor was examined to explore possible methods of treating autoimmune neuroinflammation. The phosphorylation on the key tyrosine residue in SH2 domain is crucial for STAT5 activation and function. […]

STAT5 [2] = details: Muller et al., 2008; cited from earlier work
naïve CD4+ T cells [3] = assay: In vitro TH1 differentiation; type: cell-based, mouse; details: data not shown
Procedure: CD4^+ T cells were obtained from spleens and lymph nodes by positive selection and magnetic separation (Miltenyi Biotech), followed by purification of naïve CD4^+ T cell population (CD4^+CD25^−CD62L^hiCD44^lo) sorted with FACS Aria. Naïve CD4^+ T cells were stimulated with plate-bound anti-CD3 (3 μg/ml; BD Pharmingen) and anti-CD28 (1 μg/ml; BD Pharmingen) in presence of different combinations of neutralizing antibodies and cytokines for 3˜4 days: for neutral conditions, no addition of any cytokine or neutralizing antibody; for TH1 conditions, IL-12 (10 ng/ml), and anti-IL-4 (10 μg/ml, BD Pharmingen); for TH17 conditions, hTGF-β (3 ng/ml), IL-6 (20 ng/ml), anti-IFN-γ (10 μg/ml, eBioscience), and anti-IL-4 (10 μg/ml); for an alternative TH17 conditions, IL-6 (20 ng/ml), IL-23 (10 ng/ml), IL-1β (10 ng/ml), anti-IFN-γ (10 μg/ml), and anti-IL-4 (10 μg/ml). For GM-CSF-expressing cell differentiation, naïve CD4^+ T cells were stimulated with plate-bound anti-CD3 (2 μg/ml) and soluble anti-D28 (1 μg/ml) with the addition of IL-7 and/or anti-IFN-γ (10 μg/ml) as indicated. All cytokines were obtained from R&D Systems. […] Cells were acquired on the LSR II (BD Biosciences) and analyzed with FlowJo software (Tree Star). […]

STAT5 [4] = assay: IL-7-induced STAT5 activation (Tyr694 phosphorylation) in CD4+ T cells, immunoblotting; type: cell-based, mouse; details: pre-incubated 1 h, IL-7 30 min
Procedure: as §1, §2

STAT1 = target: T2, STAT1 (Mus musculus, UniProt P42225); assay: IFN-γ-induced STAT1 activation (Tyr701 phosphorylation) in CD4+ T cells, immunoblotting; type: cell-based; details: 50 or 100 μM; IFN-γ 30 min
T2 construct: endogenous in cells; host or cells: primary mouse CD4+ T cells (spleen and lymph nodes)
T2 sequence (P42225 1-749): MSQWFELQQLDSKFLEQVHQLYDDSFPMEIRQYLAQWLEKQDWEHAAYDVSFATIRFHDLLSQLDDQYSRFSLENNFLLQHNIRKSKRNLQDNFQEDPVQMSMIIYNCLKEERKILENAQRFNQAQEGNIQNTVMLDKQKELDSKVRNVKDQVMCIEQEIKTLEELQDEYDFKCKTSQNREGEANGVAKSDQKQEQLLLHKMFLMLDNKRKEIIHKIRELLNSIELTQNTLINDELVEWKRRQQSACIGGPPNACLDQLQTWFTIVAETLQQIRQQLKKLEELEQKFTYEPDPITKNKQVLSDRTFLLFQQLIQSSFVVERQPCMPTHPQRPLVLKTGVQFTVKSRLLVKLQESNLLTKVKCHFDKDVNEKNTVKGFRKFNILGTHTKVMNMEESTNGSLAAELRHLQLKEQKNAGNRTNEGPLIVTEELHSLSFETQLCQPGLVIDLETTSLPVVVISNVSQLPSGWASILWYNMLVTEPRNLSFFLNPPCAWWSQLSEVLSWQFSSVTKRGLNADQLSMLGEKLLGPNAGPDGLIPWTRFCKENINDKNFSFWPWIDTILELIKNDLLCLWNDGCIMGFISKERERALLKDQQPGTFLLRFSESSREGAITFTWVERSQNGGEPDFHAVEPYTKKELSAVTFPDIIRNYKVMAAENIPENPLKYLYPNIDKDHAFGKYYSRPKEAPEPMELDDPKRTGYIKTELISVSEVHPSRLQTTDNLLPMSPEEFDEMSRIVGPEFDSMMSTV
Procedure: as §1, §2

naïve CD4+ T cells [5] = assay: In vitro TH17 differentiation; type: cell-based, mouse; details: data not shown
Procedure: CD4^+ T cells were obtained from spleens and lymph nodes by positive selection and magnetic separation (Miltenyi Biotech), followed by purification of naïve CD4^+ T cell population (CD4^+CD25^−CD62L^hiCD44^lo) sorted with FACS Aria. Naïve CD4^+ T cells were stimulated with plate-bound anti-CD3 (3 μg/ml; BD Pharmingen) and anti-CD28 (1 μg/ml; BD Pharmingen) in presence of different combinations of neutralizing antibodies and cytokines for 3˜4 days: for neutral conditions, no addition of any cytokine or neutralizing antibody; for TH1 conditions, IL-12 (10 ng/ml), and anti-IL-4 (10 μg/ml, BD Pharmingen); for TH17 conditions, hTGF-β (3 ng/ml), IL-6 (20 ng/ml), anti-IFN-γ (10 μg/ml, eBioscience), and anti-IL-4 (10 μg/ml); for an alternative TH17 conditions, IL-6 (20 ng/ml), IL-23 (10 ng/ml), IL-1β (10 ng/ml), anti-IFN-γ (10 μg/ml), and anti-IL-4 (10 μg/ml). […] Cells were acquired on the LSR II (BD Biosciences) and analyzed with FlowJo software (Tree Star).
Stat5 deletion (Cd4-cre; Stat5^f/−) mice was reported to develop peripheral lymphopenia, with a reduction of both CD4^+ and CD8^+ T cells (Yao et al., 2006). […] Furthermore, increased frequencies of IL-17^+ and IFN-γ^+ cells were detected among CD4^+ T cells in spleens of Stat5^−/− mice (FIG. 4C), which further support the idea that the resistance to EAE in Stat5^−/− mice is likely independent of TH1 and TH17 generation. […]

T1 sequence (P42227 whole entry): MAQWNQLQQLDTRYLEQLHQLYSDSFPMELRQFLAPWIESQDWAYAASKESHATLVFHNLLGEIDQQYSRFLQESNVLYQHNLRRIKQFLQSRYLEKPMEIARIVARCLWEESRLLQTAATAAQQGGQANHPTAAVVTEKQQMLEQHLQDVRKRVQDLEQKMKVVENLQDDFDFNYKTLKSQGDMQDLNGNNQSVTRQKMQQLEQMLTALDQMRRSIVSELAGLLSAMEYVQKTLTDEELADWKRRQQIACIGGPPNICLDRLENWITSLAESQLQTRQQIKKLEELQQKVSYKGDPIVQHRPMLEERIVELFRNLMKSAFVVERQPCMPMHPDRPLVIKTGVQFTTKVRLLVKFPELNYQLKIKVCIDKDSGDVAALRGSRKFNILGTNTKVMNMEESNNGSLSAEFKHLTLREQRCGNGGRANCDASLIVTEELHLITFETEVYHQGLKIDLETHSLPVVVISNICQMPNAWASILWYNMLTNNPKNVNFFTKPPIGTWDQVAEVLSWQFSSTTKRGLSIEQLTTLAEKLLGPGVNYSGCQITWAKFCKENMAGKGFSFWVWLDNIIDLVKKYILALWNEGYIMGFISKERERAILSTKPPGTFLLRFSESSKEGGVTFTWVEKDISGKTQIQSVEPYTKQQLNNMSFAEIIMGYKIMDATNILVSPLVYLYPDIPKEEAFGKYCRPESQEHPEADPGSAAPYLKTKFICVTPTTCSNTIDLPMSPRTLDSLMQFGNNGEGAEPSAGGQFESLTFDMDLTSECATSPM

In the case of `O=C(N/N=C/c1coc2ccccc2c1=O)c1cccnc1` [STAT5 inhibitor], the TH-GM differentiation (naïve CD4+ T cells [1]) is reported as “suppressed TH-GM differentiation in a dosage-dependent manner”, the “GM-CSF production in CNS-infiltrating CD4+ T cells” value (EAE mice; inhibitor-treated EAE mice, peak of disease) is reported as “reduced GM-CSF production” and the “EAE severity (clinical scores)” value (EAE mice; wild-type mice, intraperitoneally every other day after disease onset) is reported as “ameliorated EAE severity”. The “immune cell infiltration in the CNS” value (EAE mice; wild-type mice, intraperitoneally every other day after disease onset, day 18) was “reduced immune cell infiltration in the CNS”, the “inhibitory effect on STAT3 activation” value (STAT3) was “minimal inhibitory effect” and the “disruption of tyrosine phosphorylation and DNA binding of STAT5” value (STAT5 [2]) was “selectively disrupt tyrosine phosphorylation and DNA binding of STAT5”. The TH1 differentiation (naïve CD4+ T cells [3]) was “Reduced TH1 differentiation”, the “inhibitory effect on STAT5 activation upon IL-7 stimulation” value (STAT5 [4]; 50 μM) was “about 50%” and the “inhibitory effect on STAT5 activation upon IL-7 stimulation” value (STAT5 [4]; FIG. 22A, 22B) was “low affinity and thus required a high concentration to fully block STAT5 activation”. The “inhibitory effect on STAT1 activation” value (STAT1) was “minimal inhibitory effect” and the TH17 differentiation (naïve CD4+ T cells [5]) was “not suppressed”.
